Measured values reported in US4563461A, “Selective method for blocking 5HT2 receptors” (Eli Lilly and Company, priority 1983, dated 1986).
Read-outs that look alike come from different tables or passages of the source.

How the values were obtained:
[1] = target: T1, alpha receptors (Rattus norvegicus, UniProt P23944); assay: Antagonism of norepinephrine contraction in isolated rat aorta (apparent dissociation constant, dose ratio); format: cell-based; details: for Dose-Ratio (norepinephrine ED50 with test compound / control ED50): 10^-5 molar test compound
T1 construct: their external jugular veins and thoracic aortas dissected free of connective tissue; from tissue; host or cells: thoracic aorta of male Wistar rats
T1 sequence (P23944 1-561): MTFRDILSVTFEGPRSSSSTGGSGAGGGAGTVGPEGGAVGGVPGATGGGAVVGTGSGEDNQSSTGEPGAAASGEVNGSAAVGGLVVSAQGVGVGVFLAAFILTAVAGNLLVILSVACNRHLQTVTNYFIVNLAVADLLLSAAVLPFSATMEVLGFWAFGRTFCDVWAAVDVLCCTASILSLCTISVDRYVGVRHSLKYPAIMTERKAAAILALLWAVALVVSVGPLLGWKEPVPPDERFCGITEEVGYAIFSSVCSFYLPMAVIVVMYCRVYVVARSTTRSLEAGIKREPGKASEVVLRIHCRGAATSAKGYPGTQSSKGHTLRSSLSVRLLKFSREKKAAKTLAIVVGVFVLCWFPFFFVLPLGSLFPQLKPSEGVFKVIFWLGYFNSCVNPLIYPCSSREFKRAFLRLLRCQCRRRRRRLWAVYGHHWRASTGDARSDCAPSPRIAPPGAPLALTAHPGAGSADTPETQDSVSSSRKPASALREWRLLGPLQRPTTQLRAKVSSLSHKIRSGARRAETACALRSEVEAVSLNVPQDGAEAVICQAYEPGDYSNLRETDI
Procedure: (§1) The apparent dissociation constants (KB) are a measure of affinity for 5HT2 and alpha receptors and are expressed as the negative logarithm and are determined according to the following protocol.
(§2) Male Wistar rats (150-300 gram weight) were killed and their external jugular veins and thoracic aortas dissected free of connective tissue, cannulated in situ and placed in a modified Krebs' bicarbonate buffer in a suitable tissue bath. Two L-shaped 30-gauge stainless-steel hypodermic needles were inserted in each cannula and the dissected vessels gently pushed onto the needles. One needle was attached with thread to a stationary glass rod and the other to the transducer. [The procedure employed was that described by Hooker, Calkins and Fleisch, Blood Vessels, 14, 1, (1977) for use with circular smooth muscle preparations.]
(§3) The modified Krebs' bicarbonate buffer had the following makeup: (concentrations in millimoles): sodium chloride, 118.2; potassium chloride, 4.6; calcium chloride dihydrate, 1.6; potassium dihydrogenphosphate, 1.2; magnesium sulfate, 1.2; dextrose, 10.0; sodium bicarbonate, 24.8; and water q.s. to 1000 g. The tissue baths were maintained at 37° C. and were aerated with 95% oxygen-5% CO2. An initial optimum resting force of 1 and 4 g. was applied to the jugular vein and aorta, respectively. Isometric contractions were recorded as changes in grams of force on a Beckman Dynograph with Statham UC-3 transducers and microscale accessory attachment. Tissues were allowed to equilibrate 1 to 2 hours before exposure to drugs. Control responses to serotonin in the jugular vein and to norepinephrine in the aorta were obtained. The vessels were then incubated with appropriate concentrations of antagonist for one hour. Responses to serotonin or to norepinephrine were then repeated in the presence of the antagonist. Contraction to serotonin was evaluated in the jugular vein since this tissue produces marked responses to serotonin in the absence of alpha receptors--see Cohen and Wiley, J. Pharm. Exp. Ther., 205, 400 (1978). Alpha receptor antagonist activity was evaluated in the aorta.
(§4) Apparent antagonist dissociation constants were determined for each concentration of antagonist according to the following equation: [formula] wherein [B] is the concentration of the antagonist and the dose ratio is the ED50 of the agonist in the presence of the antagonist divided by the control ED50.
The in vitro rat aorta preparation described above was used.

[2] = target: T2, 5HT2 receptors (Rattus norvegicus, UniProt P14842); assay: Antagonism of serotonin contraction in isolated rat jugular vein (apparent dissociation constant); format: cell-based; details: for Ratio KB alpha / KB 5HT2: rat aorta KB over rat jugular vein KB; for Kb: rat jugular vein, agonist serotonin, antagonist incubated one hour, n in parentheses, read-out: 5HT2 -Log KB ± S.E. (converted)
T2 construct: their external jugular veins and thoracic aortas dissected free of connective tissue; from tissue; host or cells: external jugular vein of male Wistar rats
Procedure: as §1, §2, §3, §4

[3] = Blood pressure in spontaneously hypertensive rats (SHR); format: in vivo, rat; details: intraperitoneal, 10 mg./kg.
Procedure: In spontaneously hypertensive rats (SHR), in which blockade of alpha receptors but not 5HT2 receptors lowers blood pressure, there was no effect upon intraperitoneal administration of 1-isopropyl-6-methyl-8β-(1-methyl-2-hydroxy)propoxycarbonyl-5R-ergoline at a 10 mg./kg. dose.

[4] = target: T2, 5HT2 receptors; format: in vivo; details: pithed SHR, i.p.
Procedure: SHR were anesthesized with halothane, femoral arterial and venous catheters implanted as before and the trachea cannulated. Each rat was pithed by passing a steel rod through the right orbit and down the entire length of the spinal column. The steel rod remained in place for the duration of the experiment. Immediately after pithing, the rats were ventilated with room air via a rodent respirator which eliminated any anesthetic effects. […] The response was recorded and the blood pressure allowed to recover to control levels. […] The test drug was prepared fresh daily and administered by the intraperitoneal route.

[5] = system: alpha receptors; assay: Shift of methoxamine pressor response in pithed SHR; format: in vivo, rat; details: i.p., 10 mg./kg.
Procedure: SHR were anesthesized with halothane, femoral arterial and venous catheters implanted as before and the trachea cannulated. Each rat was pithed by passing a steel rod through the right orbit and down the entire length of the spinal column. The steel rod remained in place for the duration of the experiment. Immediately after pithing, the rats were ventilated with room air via a rodent respirator which eliminated any anesthetic effects. An equilibration period of 15 minutes was observed prior to control measurements and administration of drugs or vehicle i.p. Increasing doses of serotonin or methoxamine were injected i.v. 15 minutes after the equilibration period. The response was recorded and the blood pressure allowed to recover to control levels. […] The test drug was prepared fresh daily and administered by the intraperitoneal route. The compound shifted the serotonin response 22 and 480 fold at 0.1 and 3 mg./kg. dosages whereas at a 10 mg./kg. dose there was no shift in the response to methoxamine, an alpha agonist.

[6] = rat aorta, agonist norepinephrine, antagonist incubated one hour, n in parentheses, read-out: alpha -Log KB ± S.E. (converted)

T2 sequence (P14842 whole entry): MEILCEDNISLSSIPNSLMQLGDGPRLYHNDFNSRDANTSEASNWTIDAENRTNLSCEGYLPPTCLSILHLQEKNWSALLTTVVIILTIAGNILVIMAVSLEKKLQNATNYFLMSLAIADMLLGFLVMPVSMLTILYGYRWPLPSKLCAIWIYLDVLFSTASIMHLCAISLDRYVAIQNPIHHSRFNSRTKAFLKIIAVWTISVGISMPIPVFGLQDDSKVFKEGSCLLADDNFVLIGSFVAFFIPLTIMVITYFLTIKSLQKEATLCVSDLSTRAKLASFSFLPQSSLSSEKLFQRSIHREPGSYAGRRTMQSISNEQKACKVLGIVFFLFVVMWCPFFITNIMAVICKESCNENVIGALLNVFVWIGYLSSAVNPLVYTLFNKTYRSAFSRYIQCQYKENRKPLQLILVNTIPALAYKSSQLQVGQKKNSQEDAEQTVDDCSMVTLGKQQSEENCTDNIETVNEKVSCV

| Compound | Ratio KB alpha / KB 5HT2 [2] | Kb [2] [nM] | Dose-Ratio (norepinephrine ED50 with test compound / control ED50) ([1]; rat aorta) | Kb [1] [nM] | further results |
| --- | --- | --- | --- | --- | --- |
| O=C(c1ccc(F)cc1)C1CCN(CCn2c(=O)[nH]c3ccccc3c2=O)CC1 [Ketanserin, reference compound] |  |  |  |  | Kb [1, 6]: 12.6 nM |
| Cc1cc(CCN2CCN(c3cccc(Cl)c3)CC2)n[nH]1 [Mepiprazole] | 0.4 | 12.6 |  |  | Kb [1, 6]: 5.01 nM |
| C=CCn1cc2c3c(cccc31)[C@H]1C[C@@H](C(=O)OCCO)CN(C)[C@@H]1C2 [1-allyl-6-methyl-8β-(2-hydroxy)ethoxycarbonyl-5R-ergoline] |  |  | 2.4 |  |  |
| CNCC12CCC(c3ccccc31)c1ccccc12 [Benzoctamine] | 16 | 15.8 |  | 251 |  |
| O=c1n(CCCN2CCN(c3cccc(Cl)c3)CC2)nc2ccccn12 [Trazodone, reference compound] |  |  |  | 158 |  |
| CC(O)COC(=O)[C@@H]1C[C@@H]2c3cccc4c3c(cn4C(C)C)C[C@H]2N(C)C1 (stereo partly drawn) [1-isopropyl-6-methyl-8β-(2-hydroxy)propoxycarbonyl-5R-ergoline] |  |  | 1.0 |  |  |
| CC(O)C(C)OC(=O)[C@@H]1C[C@@H]2c3cccc4c3c(cn4C(C)C)C[C@H]2N(C)C1 (stereo partly drawn) [1-isopropyl-6-methyl-8β-(1-methyl-2-hydroxy)propoxycarbonyl-5R-ergoline] | 300,000 | 0.0537 | 3.6 | 13800 | Effect on blood pressure [3]: no effect; Shift of the serotonin response ([4]; 0.1 mg./kg.): 22 fold; Shift of the serotonin response ([4]; 3 mg./kg.): 480 fold; Shift in the response to methoxamine [5]: no shift |
